Publication PMC7320145, “Substrate Channeling via a Transient Protein-Protein Complex: The case of D-Glyceraldehyde-3-Phosphate Dehydrogenase and L-Lactate Dehydrogenase” (Scientific Reports, 2020)

What was measured:
[1] = molecular target: T1, byGAPDH (baker's yeast GAPDH); assay: fluorescence titration, average of four read-outs (protein quenching, NADH quenching, FRET, anisotropy); set-up: species or system Saccharomyces cerevisiae; conditions: in terms of NADH binding sites on each tetramer
T1 construct: gene TDH3; purified in-house or purchased from Sigma; apo-enzyme
Source text: fluorescence titration, average of four read-outs (protein quenching, NADH quenching, FRET, anisotropy) on byGAPDH (baker's yeast GAPDH)

[2] = molecular target: T2, rmGAPDH (rabbit muscle GAPDH) (Oryctolagus cuniculus, UniProt P46406); assay: as above; conditions: in terms of NADH binding sites on each tetramer; average over sites (enzyme with negative cooperativity)
T2 construct: natural full-length enzyme from rabbit muscle, homotetramer; purified in-house by established protocols or purchased from Sigma; apo-enzyme
Source text: fluorescence titration, average of four read-outs (protein quenching, NADH quenching, FRET, anisotropy) on rmGAPDH (rabbit muscle GAPDH)

T2 sequence (P46406 whole entry): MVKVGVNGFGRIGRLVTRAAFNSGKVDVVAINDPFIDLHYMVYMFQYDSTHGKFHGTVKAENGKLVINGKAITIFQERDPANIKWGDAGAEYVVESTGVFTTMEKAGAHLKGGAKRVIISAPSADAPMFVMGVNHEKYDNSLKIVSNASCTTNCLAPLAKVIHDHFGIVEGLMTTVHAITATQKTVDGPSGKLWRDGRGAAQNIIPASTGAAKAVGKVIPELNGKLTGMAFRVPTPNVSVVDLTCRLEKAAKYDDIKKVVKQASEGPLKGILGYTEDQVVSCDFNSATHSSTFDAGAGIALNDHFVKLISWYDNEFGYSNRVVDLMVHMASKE

byGAPDH-NADH KD fluorescence measurements [1]: 8.2 ± 0.5 micro Molar | rmGAPDH-NADH KD fluorescence measurements [2]: 0.8 ± 0.06 micro Molar
Compound: NC(=O)C1=CN([C@@H]2O[C@H](COP(=O)(O)OP(=O)(O)OC[C@H]3O[C@@H](n4cnc5c(N)ncnc54)[C@H](O)[C@@H]3O)[C@@H](O)[C@H]2O)C=CC1 [NADH]
